Patent US12458614B2, “Therapeutic agents for improved mobility and cognitive function and for treating neurodegenerative diseases and lysosomal storage disorders” (priority 2017, dated 2025)

Columns and labels:
[1] = tested on: patients with multisystemic atrophy cerebellar type (MSA-C); assay: Case studies, multisystemic atrophy cerebellar type; format: in vivo, human
[2] = tested on: wild-type (Npc1+/+) mice; assay: Gait analysis (CatWalk); format: in vivo, mouse; conditions: eight weeks of age
Experimental: (§1) Separate groups of Npc1^−/− and Npc1^+/+ mice were left untreated, as controls. Gait analysis was performed on mice at eight weeks of age using a CatWalk® 15.0 system according to manufacturer's instructions (Noldus, Nottingham, UK). Five runs were recorded per animal. CatWalk® parameters measured were: • 1. Stand Mean: average duration (s) of paws in contact with glass plate; • 2. Step Cycle: duration (s) between two consecutive contacts of the same paw; • 3. Duty Cycle: percentage of time paws in contact with plate compared with time to complete a step cycle; • 4. Step Sequence (AB): percentage of time spent walking in LF-RH-RF-LH alternating pattern (LF: left front; RH: right hind; RF: right front; LH left hind); • 5. Cadence: step per seconds in a trial; • 6. Diagonal Support: percentage of time with simultaneous contact of diagonal paws with the glass plate (RF&LH or RH&LF). Motor Function Analysis

[3] = tested on: Npc1−/− mice; assay: Gait analysis (CatWalk); format: in vivo, mouse; conditions: eight weeks of age
Experimental: as §1

[4] = tested on: patient with Spinocerebellar Ataxia (SCA) 1; assay: Case study, Spinocerebellar Ataxia (SCA) 1; format: in vivo, human
[5] = tested on: patients with progressive supranuclear palsy; assay: Case studies, progressive supranuclear palsy; format: in vivo, human
[6] = tested on: patients with progressive supranuclear palsy; assay: Case studies, progressive supranuclear palsy; format: in vivo, human; remark: listed apart in the source
Experimental: After 27 days of acetyl-leucine treatment, medication was stopped and the patient was re-examined 60 days later. […] Gait analysis was performed before treatment commenced. After 17 days of treatment, medication was stopped and the patient was re-examined 4 days later. […] Gait analysis was performed before treatment commenced. After three weeks of treatment, medication was stopped and the patient was re-examined.

[7] = tested on: Tay-Sachs disease patient fibroblasts; assay: Glycosphingolipid (GSL) levels via HPLC; format: cell-based, human; conditions: 1 mM for 6 days, p<0.05
[8] = tested on: patients with ataxia telangiectasia; assay: Case studies, ataxia telangiectasia (SARA, SCAFI, video-oculography); format: in vivo, human
Source text: For example, to evaluate overall neurological status, mDRS, a four-domain scale (ambulation, manipulation, language and swallowing), may be applied. Cerebellar function may be evaluated using SARA, an eight-item clinical rating scale (gait, stance, sitting, speech, fine motor function and taxis; range 0-40, where 0 is the best neurological status and 40 the worst), and SCAFI, comprising the 8-m-Walking-Time (8MW; performed by having patients walking twice as quickly as possible from one line to another excluding turning), 9-Hole-Peg-Test (9HPT) and the number of “PATA” repetitions over 10 s. Subjective impairment and quality of life may be evaluated using the EQ-5D-5L questionnaire and VAS. To assess ocular motor function, 3-dimensional videooculography (EyeSeeCam) may be used to measure the peak velocity of saccades, gain of smooth pursuit, peak slow phase velocity of gaze-evoked nystagmus (gaze-holding function), peak slow phase velocity of optokinetic nystagmus, and gain of horizontal vestibulo-ocular reflex. To evaluate the cognitive state, WAIS-R or WISC-IV, and MoCA, assessing different cognitive domains, including attention and concentration, executive functions, memory, language, visuoconstructional skills, conceptual thinking, calculations, and orientation with a maximum of 30 points and a cut-off score of 26, may be used. The skilled person will know how to perform these and other such tests.
After one month of treatment, the patient was re-evaluated. […] Examination indicated a Scale for Assessment and Rating of Ataxia (SARA) score of 15.5/40. Results from the patient's Spinocerebellar Ataxia Functional Index (SCAFI) analysis were: • Mean 8-meters Walking Test (8MW): 18.5 s • MW 9-Hole Pegboard Test Dominant (9HPTD) (right): 77.9 s • MW 9-Hole Pegboard Test Non-Dominant (9HPTND): 101.3 s • MW PATA Word Test: 13 • Visual analog scale (as evaluated by the patient): 85
After one month of treatment, the patient was re-evaluated. […] Examination indicated a Scale for Assessment and Rating of Ataxia (SARA) score of 23.5/40.
After slightly over 7 months of treatment, the patient was re-evaluated. […] Examination indicated a Scale for Assessment and Rating of Ataxia (SARA) score of 21.5/40.
After slightly over 1 month of treatment, the patient was re-evaluated. […] The patient also reported that drinking was easier and no longer needed a straw. […] Examination indicated a Scale for Assessment and Rating of Ataxia (SARA) score of 18.5/40.
After about 1 month of treatment, the patient was re-evaluated. […] On medication, they were able to walk with only holding the caregiver's hand.
The patient was evaluated after one month and six months of treatment, respectively. […] The patient, however, was suffering from anxiety, which would be expected to negatively influence the response.

[9] = PSP Patient 4, after three weeks of treatment
[10] = A-T Patient 3, after slightly over 7 months
[11] = A-T Patient 4, after slightly over 1 month
[12] = A-T Patient 5, after about 1 month
[13] = A-T Patient 5, after almost 7 months

CC(=O)NC(CC(C)C)C(=O)O (racemic) [acetyl-DL-leucine]
Speech ([1]; MSA-C Patient 1, after one week, 5 g per day): significant improvement in speech
Dizziness ([1]; MSA-C Patient 2, after 3 weeks): substantially improved
Falls ([1]; MSA-C Patient 2, after 3 weeks): falls completely stopped
Gait ([1]; MSA-C Patient 2, after 3 weeks): significant improvement of gait
Symptoms after stopping medication ([1]; MSA-C Patient 2, one week after first stop): deterioration of gait and dizziness
Symptoms after stopping medication ([1]; MSA-C Patient 2, two days after second stop): progressive deterioration of gait and dizziness
Symptomatology after return to treatment ([1]; MSA-C Patient 3): symptomatology re-improved
Gait analysis (summary) ([1]; MSA-C Patient 3, after one month): improvement of gait speed, and reductions of track width and gait fluctuations
Symptoms after re-suspension ([1]; MSA-C Patient 3, three weeks after treatment was again suspended): deterioration of symptoms, especially dizziness
Symptoms after stopping medication ([1]; MSA-C Patient 3, two to three weeks after stopping): progressive deterioration of gait and dizziness
Gait properties vs untreated littermates [2]: no significant difference in gait properties
Gait properties vs untreated littermates [3]: significantly improved gait
Symptoms ([4]; three weeks on medication, 5 g/day): all symptoms significantly improved
Intensity of signs and symptoms after stop ([4]; two weeks after medication was stopped): the same as before therapy
Symptoms after stopping medication ([5]; PSP Patient 2, about two months later): no deterioration of symptoms after stopping medication
Symptoms after stopping medication ([5]; PSP Patient 3, about two months later): no deterioration of symptoms after stopping medication
Symptoms after suspension ([6]; PSP Patient 1): symptoms worsened
PSPRS Score ([6]; PSP Patient 1, re-examined about two months later): remained stable
Dizziness and gait (patient report) ([6]; PSP Patient 1, under therapy, 27 days): significant reduction of dizziness and slight improvement of gait
Gait / hypokinetic rigid syndrome (patient report) ([6]; PSP Patient 2, 17 days of treatment): no significant improvement of gait or hypokinetic rigid syndrome
Gait / hypokinetic rigid syndrome (patient report) ([6]; PSP Patient 3, 17 days of treatment): no significant improvement of gait or hypokinetic rigid syndrome
Symptoms without medication ([6]; PSP Patient 4, after three months without medication): progression of hypokinetic-rigid syndrome
Gait analysis (summary) [6, 9]: improvement of gait with increased speed, max. speed, and step cycle length and reduction of track width, double stance and coefficient of variation
Gait and falls (patient report) [6, 9]: gait with increased subjective security and with reduced frequency of falls
GSL storage [7]: decrease was statistically significant
Video-oculography (summary) ([8]; A-T Patient 1, after one month): significant improvement of fixation stability and decrease of intensity of downbeat-nystagmus
Caregiver report ([8]; A-T Patient 1, after one month, 5 g/day): improvement of speech and gait
9-Hole Pegboard Test Dominant (9HPTD) ([8]; A-T Patient 2, after one month): 300 s
Mean 8-meters Walking Test (8MW) ([8]; A-T Patient 2, after one month): not able to perform without support
Video-oculography (summary) ([8]; A-T Patient 2, after one month): improvement of fixation stability and significant improvement of downbeat-nystagmus intensity
Caregiver report ([8]; A-T Patient 2, after one month, 5 g/day): improvement of fine motor function, hand tremor, and speech
Mean 8-meters Walking Test (8MW) [8, 10]: not able to perform
Video-oculography (summary) [8, 10]: significant improvement of fixation stability and decrease of intensity of gaze-holding nystagmus at all positions
Caregiver and patient report ([8]; A-T Patient 3, after slightly over 7 months, 5 g/day): general improvement of well-being
Mean 8-meters Walking Test (8MW) [8, 11]: not able to perform
Video-oculography (summary) [8, 11]: general improvement of fixation stability and decrease of intensity of spontaneous and gaze-holding nystagmus at all positions
Patient and family report ([8]; A-T Patient 4, after slightly over 1 month, 5 g/day): improvement in handwriting
Body weight gained [8, 12]: 1.5 kg
Mean 8-meters Walking Test (8MW) [8, 12]: not able to walk without support
Gait (reported by parent) ([8]; A-T Patient 5, after about 1 month, 5 g/day): significant improvement of stability of the gait
Further body weight gained [8, 13]: 3 kg
Gait (reported by parent) [8, 13]: significantly more stable gait
Clinical re-evaluation ([8]; A-T Patient 5, after slightly over a year): improved social interaction, activity, and agility
Adverse observation ([8]; A-T Patient 5, after slightly over a year, suspected infantile migraine): repeatedly occurring frontal localized pain with vomiting in the morning
Clinical evaluation ([8]; A-T Patient 6, after one month, 1.5 g/day then 3 g/day): increased fine motor skills with reduced hand tremor
Clinical evaluation ([8]; A-T Patient 6, after six months): stable general conditions, stable gait and stance, and improved handwriting
